From paper PMC8302504, “Efficacy of Fenfluramine and Norfenfluramine Enantiomers and Various Antiepileptic Drugs in a Zebrafish Model of Dravet Syndrome” (Neurochemical Research, 2021)

Legend:
[1] = test system: zebrafish scn1Lab−/− mutant larvae; experiment: Noninvasive local field potential (LFP) recordings from the optic tectum; assay type: in vivo, Danio rerio; conditions: 22 h
Description: (§1) WT and homozygous zebrafish larvae (scn1Lab^−/− mutants) (6 dpf) were treated as described above. After incubation, larvae were immobilized in 2% low-melting-point agarose (Invitrogen) at room temperature (RT) and the epileptiform activities were measured by noninvasive local field potential (LFP) recording from the skin above the optic tectum (midbrain). The single glass electrode filled with artificial cerebrospinal fluid (ACSF) (124 mM NaCl, 2 mM KCl, 2 mM MgSO4, 2 mM CaCl2, 1.25 mM KH2PO4, 26 mM NaHCO3, and 10 mM glucose) was positioned on the skin above the optic tectum. Each recording lasted for 10 min. Epileptiform activity was quantified by using Clampfit 10.2 software (Molecular Devices Corporation, USA60), as reported previously by our group.

[2] = test system: zebrafish scn1Lab−/− mutant larvae; experiment: Locomotor activity measurement (behavioral assay) in the zebrafish DS model; assay type: in vivo, Danio rerio; conditions: single treatment at MTC, 22 h, Fig. 2A
Description: (§2) WT and homozygous zebrafish larvae (scn1Lab^−/− mutants) (6 dpf) were individually positioned in single wells of a 96-well plate, and incubated in 100 μL VHC or VHC supplemented with compound or combined compounds for 22 h at 28 °C on a 14/10 h light/dark cycle. Then, the plates were placed immediately in an enclosed tracking device (ZebraBox Viewpoint, France), followed by a 30 min chamber habituation and 10 min recording. Locomotor activity over the total tracking period of 10 min was quantified by ZebraLab software (Software Viewpoint, France) using the lardist parameter (total distance in large movements) and 150 bkg (background) as a threshold, as reported previously by our group. For “small/large movement” and “inact/small movement”, a threshold was used of 6.4 and 3.3, respectively. Data were pooled from three or four independent experiments, with at least five larvae for each treatment and 20–30 larvae for each experimental condition, and expressed as “cm” per 100 s.

[3] = test system: WT zebrafish larvae; experiment: Toxicity evaluation: maximum tolerated concentration (MTC); assay type: in vivo, Danio rerio; conditions: WT larvae 6 dpf, 22 h incubation
Description: To evaluate the maximum tolerated concentration (MTC) of the individual compounds, a dozen of WT zebrafish larvae (6 dpf) were individually incubated in single wells of a 96-well plate, and treated with two-fold serial dilutions of the compounds. After 22 h incubation under standard conditions (28 °C, 14/10 light/dark cycle), larvae were individually examined for their touch response, posture, edema, signs of necrosis, morphology, heartbeat rate, and swim bladder condition under the microscope.

[4] = test system: DS zebrafish mutant model; design: method as in PMID 29335539; conditions: cited from earlier work
[5] = test system: zebrafish scn1Lab−/− mutant model of DS; experiment: Overall antiepileptic activity in the zebrafish scn1Lab−/− mutant model (locomotor and LFP read-outs together); assay type: in vivo, Danio rerio; conditions: 22 h incubation
Description: as §2, §1

[6] = test system: 5-HT2A; design: method as in earlier work; conditions: 34 (Rothman et al.); cited from earlier work
[7] = test system: norepinephrine (NE) release; design: method as in earlier work; conditions: 34 (Rothman et al.); cited from earlier work
[8] = test system: 5-HT transporter proteins; design: method as in earlier work; conditions: 34 (Rothman et al.); read-out: EC50 values for release, 5-HT; cited from earlier work
[9] = molecular target: dopamine (DA) uptake; design: method as in earlier work; conditions: 34 (Rothman et al.); read-out: Ki values for uptake inhibition, DA; cited from earlier work
[10] = molecular target: serotonin uptake; design: method as in earlier work; conditions: 34 (Rothman et al.); read-out: Ki values for uptake inhibition, 5-HT; cited from earlier work
[11] = test system: 5-HT2B; design: method as in earlier work; conditions: 34 (Rothman et al.); cited from earlier work
[12] = test system: dopamine (DA) release; design: method as in earlier work; conditions: 34 (Rothman et al.); cited from earlier work
[13] = Compound concentration (uptake) in larval zebrafish heads by LC-MS; assay type: in vivo, Danio rerio; conditions: immersion at MTC for 30 min, 4 h and 22 h, Fig. 4
Description: WT and homozygous zebrafish larvae (scn1Lab^−/− mutants) (6 dpf) were treated as described above. After incubation with compounds, larvae were washed and euthanized by exposure to cold Milli-Q water. Then, the heads of larvae were carefully separated under the microscope, and five heads were transferred collectively into one 1.5 mL Eppendorf tube with acid-washed glass beads (diameter: […], Sigma Aldrich) and 275 µL extraction medium (HPLC grade methanol, Sigma Aldrich). Next, the samples were homogenized by 10 min of ultrasonication (Diagenode Bioruptor Plus, Belgium) at 4 °C. The overall ultrasonication process encompassed 10 cycles of 30 s with pauses of 30 s in-between with high energy input. […]
Quantification was performed through the use of a calibration curve created for each compound separately in blank matrix, which was derived from a pooled set of blank fish heads (n = 40). […] Ranges consisted of at least 5 concentrations, each of which was analyzed in replicate (n = 5). […]
The mean head weight (± S.D.) of a 6 dpf and 7 dpf zebrafish larva was 192 ± 10 µg and 196 ± 13 µg, respectively, as measured by weighing three batches of 50 fresh heads after removing excess water with filter paper. The final uptake was calculated according to the method reported by Copmans et al., and expressed as amount/head weight (µg/g).

[14] = molecular target: norepinephrine (NE) uptake; design: method as in earlier work; conditions: 34 (Rothman et al.); read-out: Ki values for uptake inhibition, NE; cited from earlier work
[15] = test system: 5-HT2C; design: method as in earlier work; conditions: 34 (Rothman et al.); cited from earlier work
[16] = 5 dpf zebrafish larvae, 1 h incubation with 15 µg/mL; cited from earlier work

CN1C(=O)CC(=O)N(c2ccccc2)c2cc(Cl)ccc21 [CLB, clobazam]
effect on epileptiform brain discharges ([1]; single treatment at MTC): failed to rescue | effect on epileptiform (hyper-)locomotor activity [2]: failed to rescue | maximum tolerated concentration (MTC) [3]: 100 µM | efficacy in the DS zebrafish mutant model [4]: ineffective

C[C@@H](N)Cc1cccc(C(F)(F)F)c1 [(−)-norFFA]
effect on frequency and cumulative duration of the epileptiform events ([1]; at least at MTC, Fig. 7): all compounds except for (−)-norFFA significantly reduced | antiepileptic activity in the model (overall) [5]: less conclusive | Kact values for 5-HT2 receptor subtypes, 5-HT2A [6]: 1565 ± 190 nM | EC50 [7]: 0.474 ± 0.04 µM | EC50 [8]: 0.287 ± 0.014 µM | Ki [9]: 19.2 µM | Ki [10]: 1.18 ± 0.089 µM | Kact values for 5-HT2 receptor subtypes, 5-HT2B [11]: 357 ± 105 nM | EC50 [12]: > 10 µM | total uptake in larval heads (amount of compound/head weight) [13]: somewhat similar uptake | Ki [14]: 2.05 ± 0.297 µM | Kact values for 5-HT2 receptor subtypes, 5-HT2C [15]: 18 ± 3.5 nM

O=C(CCCN1CCC(O)(c2ccc(Cl)cc2)CC1)c1ccc(F)cc1 [haloperidol]
head uptake (recovered concentration) [16]: 21.6 µg/g
